Measurements: patent US20150289512A1, “METHOD FOR PROMOTING PLANT GROWTH” (SUMITOMO CHEMICAL COMPANY, LIMITED, priority 2012, published 2015)

Test system: Corn seeds (variety: Pioneer 120 31P41)
Assay: Test Example 14: growth promotion under low-temperature stress by soil drench treatment of corn
Format: in vivo
Details: Zea mays, 120 h; soil drench 20 ml, concentration tested 3 ppm; low-temperature stress 5 days at 2.5° C.; health score 0-5, average of 4 individuals; read-out: Relative value of score (%- untreated control plot)
Procedure, shortened: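 7-day-old corn seedlings soil-drenched with 20 ml compound solution (from 1,000× DMSO stock in water; control 0.1% DMSO), grown 2 days at 27 °C, then 5 days at 2.5 °C, then 4 days recovery at 27 °C. Health scored 1–5 by number of leaves ≥⅔ healthy; mean of 4 plants.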

Q: For `COC(=O)c1nc2cc(C(F)(F)F)ccc2o1` [Compound 17, methyl 5-trifluoromethylbenzoxazole-2-carboxylate], which change in vivo at 3 ppm is on record?
A: Its change in vivo at 3 ppm is greater than 5%.

Same assay, conditions: Zea mays, 120 h; soil drench 20 ml, concentration tested 10 ppm; low-temperature stress 5 days at 2.5° C.; health score 0-5, average of 4 individuals; read-out: Relative value of score (%- untreated control plot)

Q: With `COC(=O)c1cc2ccccc2o1` [Compound 1] as the molecule, how does the change in vivo at 10 ppm read?
A: The change in vivo at 10 ppm was greater than 5%.

Q: For `COC(=O)c1oc2ccc(C(F)(F)F)cc2c1O` [Compound 50], which change in vivo at 10 ppm is on record?
A: The change in vivo at 10 ppm was greater than 5%.

Q: How did the change in vivo at 10 ppm turn out when `NC(=O)c1oc2ccccc2c1C(F)(F)F` [Compound 85] was run?
A: Its change in vivo at 10 ppm is greater than 5%.

Q: Which change in vivo at 10 ppm does the source give for `Cc1c(C(=O)O)oc2ccc(C(F)(F)F)cc12` [Compound 34] here?
A: Its change in vivo at 10 ppm is greater than 5%.

Q: For `O=C(O)c1oc2ccccc2c1C(F)(F)F` [Compound 82], which change in vivo at 10 ppm is on record?
A: Its change in vivo at 10 ppm is greater than 5%.

Q: How did the change in vivo at 10 ppm turn out when `COC(=O)c1cc2c(C(F)(F)F)cccc2o1` [Compound 45] was run?
A: Its change in vivo at 10 ppm is greater than 5%.

Q: `COC(=O)c1cc2cc(C(F)(F)F)ccc2o1` [Compound 3, methyl 5-(trifluoromethyl)benzofuran-2-carboxylate] was tested. Which change in vivo at 10 ppm did it give?
A: Its change in vivo at 10 ppm is greater than 5%.
